Source: patent US9822125B2, “Benzopyran compounds as melanogenesis modifiers and uses thereof” (NEW YORK UNIVERSITY, priority 2011, dated 2017)

System: melan-a cells
Assay: Melanin assay in cultured murine melanocytes (melan-a)
Format: cell-based
Conditions: 72 hours of incubation
Method: The Spectrum Collection library consisting of 2000 drug compounds or natural products represents a source for the identification of compounds useful in the present invention. The library may be screened to identify novel pigmentation inhibitors in cultured murine melanocytes (melan-a). Compounds are dissolved in dimethylsulfoxide (DMSO) to a final concentration of 10 mM. Screening is performed with cultured melanocytes in 24-well plates followed by melanin assay (see below). A minimum change of 50% in melanin formation is established as significant for a pigmentation inhibitor. DMSO may be used as a negative control and the widely used depigmenting agent, hydroquinone, may be used as a positive control on every plate. Primary screening is performed at a final concentration of 1 μM and potential candidates from the primary screening are reconfirmed in duplicate at final concentrations of 1 and 5 μM.
Melan-a cells are plated at 5×10^4 cells per well in 1 ml of culture media in 24-well plates the day before adding the library compounds. All compounds are added at the indicated final concentrations. Cells are harvested after 72 hours of incubation, and the melanin assay is performed.
For further test and mechanism of action studies, the compounds may be purchased from Sigma, MicroSource or other known suppliers. The compounds are dissolved in dimethylsulfoxide (DMSO) to a final concentration of 10 mM, and are tested for their effect on melanin synthesis at the indicated final concentrations.
For the primary and secondary screening, cells were harvested and dissolved in 200 μl of 2N NaOH in 20% DMSO at 70° C. A 180-μl aliquot of the resulting solution was measured for absorbance at 490 nm.
Cells are harvested in extraction buffer (1% Triton X-100, 50 mM Tris, 2 mM EDTA, 150 mM NaCl, pH 7.5) containing a complete protease inhibitor cocktail (Roche). The lysates were centrifuged at 14,000 rpm for 10 minutes at 4° C. BCA protein assay kit (Pierce) was used to measure the protein concentrations of the supernatants, and bovine serum albumin was used as a standard. The remaining pellets were incubated with 100 μl ethanol-ether (1:1) for 10 minutes at room temperature. After removing the ethanol-ether, the pellets were dissolved in 200 μl of 2N NaOH in 20% DMSO at 70° C. A 180-μl aliquot of the resulting solution was measured for absorbance at 490 nm. The melanin contents were normalized to the total amount of protein.
The compounds, their structures, inhibition data expressed as % of control remaining, are set forth in FIG. 1 and are shown in Table 1, below.

| Structure (SMILES) | % of control melanin remaining after treatment @ 1 μM | % of control melanin remaining after treatment @ 5 μM |
| --- | --- | --- |
| CC(C)=CCc1c2c(c3occ(-c4ccc(O)cc4)c(=O)c3c1O)C=CC(C)(C)O2 [ID 1, Osajin] | 99 % of control | 87 % of control |
| COc1ccc(-c2coc3c4c(c(CC=C(C)C)c(O)c3c2=O)OC(C)(C)C=C4)cc1 [ID 2, Osajin- 4′methyl ester] | 99 % of control | 70 % of control |
| CC(C)=CCc1c2c(c3occ(-c4ccc(O)c(O)c4)c(=O)c3c1O)C=CC(C)(C)O2 [ID 3, Pomiferin] | 53 % of control | – |
| COc1ccc(-c2coc3c4c(c(CC=C(C)C)c(O)c3c2=O)OC(C)(C)C=C4)cc1OC [ID 4, Pomiferin-3′,4′-dimethyl ether] | 80 % of control | 50 % of control |
| CC(C)=CCc1c2c(c(O)c3c(=O)c(-c4ccc(O)cc4)coc13)C=CC(C)(C)O2 [ID 5, Warangalone] | 100 % of control | 78 % of control |
